Columns and labels:
insulin receptor = insulin receptor (Homo sapiens, UniProt P06213); details: cited from earlier work
STZ diabetic mice [1] = experiment: Long term blood glucose control study (serial dosing); type: in vivo, mouse
Protocol: (§1) STZ Mouse Model. […] Specifics of these studies are detailed here:
Long term blood glucose control study. Healthy mice were first weighed individually and injected STZ following the above protocol. […] Mice were fed after treatment injection and brought back to their cage on Day 0. […] For all other groups, 48 h post treatment injection, mice were fasted for 5 h to adjust for time since last eating, followed with BGL measurement. The same process was repeated at 96 h following treatment injection. After measurement, mice were weighed individually. Mice were then re-dosed with the same formula every 5 days, collecting BGL at 48 h and 96 h following treatment with a 5 h fast; the process was repeated for one month.

[2] = test system: STZ-induced diabetic mice; experiment: Multi-day blood glucose control study; type: in vivo, mouse
Protocol: as §1
Multi-Day Blood Glucose Control Study. […] BGL was then monitored for an additional 3 h following IPGTT. Mice were fasted during the entire IPGTT period with free access to water. Mice were fed after IPGTT. At 48 h post treatment, mice were fasted for 5 h followed by an IPGTT challenge for 3 h. Mice were then fed at the end of IPGTT. The IPGTT challenges were repeated on Day 4 and Day 6. Area under the curve (AUC) for each IPGTT cycle was calculated using the trapezoidal rule and statistically analyzed using GraphPad Prism v 9.0.

[3] = in vivo; cited from earlier work
[4] = test system: STZ-induced diabetic mouse model; experiment: Determination of functional formulation and dose in STZ mice; details: unmodified insulin 0.17 mg/kg; complexes 0.17 or 3.5 mg/kg Insulin-DiPBA
Protocol: (§2) STZ Mouse Model. A chemically induce diabetes mouse model were established in male C57BL6/J mice (8 weeks, 25 g, Jackson Laboratory) using streptozotocin (STZ), according to common protocols. Mice were fasted for 4 h prior to injection with STZ at 150 mg/kg i.p., dissolved in pH 4.5 citrate buffer. Treated mice were fasted for an additional 0.5 h and were then supplied with food and water as normal. Treated mice were allowed to develop diabetes for 7 d, and diabetes was verified using handheld blood glucose meters (CVS), targeting unfasted blood glucose level (BGL) above 600 mg/dL.
Mice were challenged with three intraperitoneal glucose tolerance tests (IPGTT).

STZ diabetic mice [5] = experiment: In vivo activity verification in overnight-fasted STZ diabetic mice; parameters: species or system mouse; details: 0.1 mg/kg s.c.
Protocol: as §2
In Vivo Activity Verification. STZ induced diabetic mice were fasted for 8 h on the eighth day following induction, and mice with BGL>350 mg/dL in their overnight fasted state were randomly divided into groups (n=4/group). […] BGLs for each group were continuously monitored for 6 h after treatment. Mice were fasted during the entire experiment.

insulin receptor, sequence (P06213 28-758 limits assumed, species assumed): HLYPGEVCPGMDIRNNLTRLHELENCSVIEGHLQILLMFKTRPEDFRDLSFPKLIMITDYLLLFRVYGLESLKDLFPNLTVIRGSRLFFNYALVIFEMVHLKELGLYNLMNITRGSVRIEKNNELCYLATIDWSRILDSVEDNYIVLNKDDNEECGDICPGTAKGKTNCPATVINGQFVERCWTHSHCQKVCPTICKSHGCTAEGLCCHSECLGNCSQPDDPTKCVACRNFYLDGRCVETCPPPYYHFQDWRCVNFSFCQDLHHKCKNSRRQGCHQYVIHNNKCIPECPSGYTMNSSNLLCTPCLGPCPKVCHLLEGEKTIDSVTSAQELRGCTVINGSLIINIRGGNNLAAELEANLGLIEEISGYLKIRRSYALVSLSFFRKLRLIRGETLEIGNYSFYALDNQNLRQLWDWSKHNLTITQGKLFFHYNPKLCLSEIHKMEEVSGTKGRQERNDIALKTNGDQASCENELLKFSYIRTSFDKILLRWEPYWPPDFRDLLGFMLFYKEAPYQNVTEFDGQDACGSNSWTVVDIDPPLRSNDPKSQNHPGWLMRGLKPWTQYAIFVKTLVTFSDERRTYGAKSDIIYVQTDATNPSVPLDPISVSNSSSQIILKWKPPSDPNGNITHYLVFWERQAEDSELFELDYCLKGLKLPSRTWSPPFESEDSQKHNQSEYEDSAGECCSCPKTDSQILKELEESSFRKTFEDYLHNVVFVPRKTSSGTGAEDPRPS
insulin receptor, sequence (P06213 763-1382 partner limits assumed, species assumed): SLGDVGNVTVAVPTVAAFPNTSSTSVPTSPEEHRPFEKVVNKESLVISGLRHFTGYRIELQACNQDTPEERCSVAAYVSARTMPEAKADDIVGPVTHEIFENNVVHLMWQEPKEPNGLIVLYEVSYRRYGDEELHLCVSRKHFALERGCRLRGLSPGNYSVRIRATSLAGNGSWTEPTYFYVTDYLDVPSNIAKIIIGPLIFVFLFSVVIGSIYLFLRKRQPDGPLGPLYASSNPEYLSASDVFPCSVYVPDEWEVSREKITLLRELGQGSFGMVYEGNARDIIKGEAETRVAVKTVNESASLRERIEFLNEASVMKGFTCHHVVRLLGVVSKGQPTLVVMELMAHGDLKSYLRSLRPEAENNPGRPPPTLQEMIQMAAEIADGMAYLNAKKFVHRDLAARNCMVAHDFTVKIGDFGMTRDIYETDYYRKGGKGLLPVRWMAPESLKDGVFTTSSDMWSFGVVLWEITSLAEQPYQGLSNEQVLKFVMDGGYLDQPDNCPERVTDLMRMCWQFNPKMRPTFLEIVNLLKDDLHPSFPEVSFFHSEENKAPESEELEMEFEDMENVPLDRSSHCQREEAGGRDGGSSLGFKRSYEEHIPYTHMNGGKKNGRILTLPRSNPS

Insulin Detemir
insulin receptor binding affinity relative to unmodified insulin (insulin receptor): ~ 25% | blood glucose throughout 5 weeks of repeat dosing (STZ diabetic mice [1]; complexes every 5 d, 10.4 mg/kg, Insulin Detemir daily 1 IU/kg, 3 h fast): did not provide sustained blood glucose correction | body weight reduction from pre-STZ levels (STZ diabetic mice [1]; daily dosing): ~ 20% | blood glucose control with daily administration ([2]; 1 IU/kg daily): did not sustain blood glucose control when this was not combined with overnight fasting | blood glucose level after 3 h, day 0 challenge ([2]; overnight-fasted, complexes 10.4 mg/kg, Insulin Detemir 1 IU/kg): 71 mg/dL

Insulin Glargine
duration of action [3]: 24 to 36 h

Insulin: recombinant human insulin, unmodified
BGL correction over three IPGTT cycles [4]: failed during the first IPGTT cycle | time after which blood glucose increased (STZ diabetic mice [5]): ~ 120 min

Source: patent US20260216350A1 (UNIVERSITY OF NOTRE DAME DU LAC, priority 2023, published 2026)
